Measurements reported in ChEMBL document CHEMBL4402534, “Dihydroorotate dehydrogenase inhibitors in anti-infective drug research” (Eur J Med Chem, 2019).
Values after ≈ are worked out from the molar mass of the structure shown.

What was measured:
[1] = target: T1, Dihydroorotate dehydrogenase (quinone), mitochondrial (Homo sapiens, UniProt Q02127); experiment: Inhibition of DHODH (unknown origin)
[2] = Inhibition of Helicobacter pylori DHODH
Helicobacter pylori = experiment: Antibacterial activity against Helicobacter pylori by whole cell-based assay; format: functional
[3] = target: T1, Dihydroorotate dehydrogenase (quinone), mitochondrial; experiment: Inhibition of human DHODH
[4] = Inhibition of Escherichia coli DHODH
[5] = Inhibition of Enterococcus faecalis DHODH
[6] = Inhibition of Plasmodium falciparum DHODH
[7] = Inhibition of Aspergillus fumigatus DHODH
Dengue virus [8] = experiment: Antiviral activity against Dengue virus assessed as reduction in virus replication; format: functional, organism-based
Cytomegalovirus = experiment: Antiviral activity against Cytomegalovirus; format: functional, organism-based; details: Human betaherpesvirus 5
[9] = Antiviral activity against Human herpesvirus 6 type A; format: functional, Human herpesvirus 6A
Human alphaherpesvirus 3 = experiment: Antiviral activity against Varicella zoster virus; format: functional, organism-based
Human alphaherpesvirus 1 = experiment: Antiviral activity against Herpes simplex viruses type 1; format: functional, organism-based
Human alphaherpesvirus 2 = experiment: Antiviral activity against Herpes simplex viruses type 2; format: functional, organism-based
Yellow fever virus = experiment: Antiviral activity against Yellow fever virus infected in human A549 cells assessed as reduction in virus replication; format: functional, organism-based
West Nile virus = experiment: Antiviral activity against West Nile virus infected in human A549 cells assessed as reduction in virus replication; format: functional, organism-based
Dengue virus [10] = experiment: Antiviral activity against Dengue virus infected in human A549 cells assessed as reduction in virus replication; format: functional, organism-based
[11] = tested on: Western equine encephalitis virus; experiment: Antiviral activity against Western equine encephalomyelitis virus infected in human A549 cells assessed as reduction in virus replication; format: functional, organism-based
[12] = tested on: Vesicular stomatitis virus; experiment: Antiviral activity against Vesicular stomatitis virus infected in human A549 cells assessed as reduction in virus replication; format: functional, organism-based
[13] = Inhibition of Babesia bovis DHODH
[14] = Selectivity index, ratio of IC50 for human DHODH to IC50 for Schistosoma mansoni DHODH

T1 sequence (Q02127 whole entry): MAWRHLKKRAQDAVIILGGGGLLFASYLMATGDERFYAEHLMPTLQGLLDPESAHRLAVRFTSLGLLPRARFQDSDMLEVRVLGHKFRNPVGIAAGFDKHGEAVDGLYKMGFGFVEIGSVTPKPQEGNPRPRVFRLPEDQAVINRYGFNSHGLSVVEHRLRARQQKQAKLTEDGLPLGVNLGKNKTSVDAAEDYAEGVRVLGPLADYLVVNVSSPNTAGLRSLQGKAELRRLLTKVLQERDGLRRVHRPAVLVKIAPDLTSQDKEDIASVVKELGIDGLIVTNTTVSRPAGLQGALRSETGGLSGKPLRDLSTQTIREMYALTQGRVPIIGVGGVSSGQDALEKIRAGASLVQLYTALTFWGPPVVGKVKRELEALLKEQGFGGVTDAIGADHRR

Q: For C[C@H](c1ccc(-c2ccccc2)cc1)N(C)C(=O)CSc1nnnn1-c1ccc(O)cc1, which IC50 [1] is on record?
A: 41000 nM

Q: For COc1ccc(-n2nc(C(=O)NCc3ccccc3)cc2C(=O)Nc2ccc(C(=O)N3CCCC3)cc2)cc1, which Ki [2] is on record?
A: 26 nM

Q: And the MIC (Helicobacter pylori)?
A: 3 µg/mL (≈ 5.73 µM)

Q: What does the source list for O=c1sn(-c2ccccc2)c(=O)n1-c1ccc(F)cc1?
A: IC50 [3]: > 100000 nM; IC50 [4]: 840 nM; IC50 [5]: 75 nM

Q: With Cc1nc2c(OC(F)F)cccc2n1-c1ccc(C(=O)NC2CC2)s1 as the compound, how does the IC50 [6] read?
A: 220 nM

Q: Which IC50 [2] does the source give for CSC(=NCn1c(C/C=C(\C)CCC=C(C)C)c(C)c(=O)c2ccccc21)SC here?
A: 11100 nM

Q: Which IC50 [3] does the source give for Cc1cc(-c2ccccc2)c(C(=O)C(=O)Nc2ccc(N3CCN(c4ncc(F)cn4)CC3)cc2)n1C [OLOROFIM] here?
A: > 100000 nM

Q: And the IC50 [7]?
A: 44 nM

Q: For O=C(N[C@@H]1CCCc2c1[nH]c1ccc(Cl)cc21)c1ccccn1, which Ki [3] is on record?
A: 203 nM

Q: And the IC50 (Dengue virus [8])?
A: 13.3 nM

Q: Which results are given for O=C(Nc1c(F)c(F)c(-c2cccc(OC(F)(F)F)c2)c(F)c1F)c1ccsc1C(=O)O [KIO-100]?
A: IC50 (Cytomegalovirus): 1500 nM; IC50 [9]: 1.55 nM; IC50 (Human alphaherpesvirus 3): 3.55 nM; IC50 (Human alphaherpesvirus 1): > 10000 nM; IC50 (Human alphaherpesvirus 2): > 10000 nM

Q: For Cc1[nH]c2ccc(-c3nnc(SCC(=O)N4CCCC4)o3)cc2c1C, which IC50 [1] is on record?
A: 1130 nM

Q: With Cc1c(-c2ccc(-c3ccccc3F)cc2)nc2ccc(F)cc2c1C(=O)O [BREQUINAR] as the compound, how does the EC50 (Yellow fever virus) read?
A: 78 nM

Q: And the EC50 (West Nile virus)?
A: 78 nM

Q: What about the EC50 (Dengue virus [10]) of the same compound?
A: 78 nM

Q: And the EC50 [11]?
A: 78 nM

Q: And the EC50 [12]?
A: 78 nM

Q: What about the IC50 [13] of the same compound?
A: 52400 nM

Q: With CCCCCCCCc1[nH]c2ccccc2c(=O)c1C as the compound, how does the IC50 [2] read?
A: 4550 nM

Q: For Cc1oncc1C(=O)Nc1ccc(C(F)(F)F)cc1 [LEFLUNOMIDE], which IC50 [13] is on record?
A: 52400 nM

Q: Which IC50 [6] does the source give for Cc1nc2cc(OC(F)(F)F)ccc2n1-c1ccc(C(=O)NC2CC2)s1 here?
A: 220 nM

Q: Which results are given for COC(=O)c1c(-c2c(Cl)cccc2Cl)noc1-c1cnn(-c2cccc(Cl)c2)c1C(F)(F)F?
A: EC50 (Yellow fever virus): 2.4 nM; EC50 (West Nile virus): 2.4 nM; EC50 (Dengue virus [10]): 2.4 nM; EC50 [11]: 2.4 nM; EC50 [12]: 2.4 nM; IC50 [3]: 103 nM

Q: What does the source list for O=C(NCc1cccnc1)c1cc(C(=O)Nc2ccccc2)n(-c2ccc(Cl)cc2)n1?
A: Ki [2]: 4 nM; MIC (Helicobacter pylori): 0.25 µg/mL (≈ 0.579 µM)

Q: With O=C(NCc1ccccc1)c1cc(C(=O)Nc2ccccc2)n(-c2ccc(Cl)cc2)n1 as the compound, how does the Ki [2] read?
A: 4 nM

Q: What about the MIC (Helicobacter pylori) of the same compound?
A: 0.125 µg/mL (≈ 0.29 µM)

Q: Which IC50 [6] does the source give for Cc1cc(Nc2ccc(S(F)(F)(F)(F)F)cc2)n2ncnc2n1 here?
A: 130 nM

Q: With COc1ccc(-n2nc(C(=O)Nc3ccccc3O)cc2C(=O)Nc2ccc(C(=O)N3CCCC3)cc2)cc1 as the compound, how does the Ki [2] read?
A: 50 nM

Q: For Cc1nc2c(C#N)cccc2n1-c1ccc(C(=O)NC2CC2)s1, which IC50 [6] is on record?
A: 50 nM

Q: With O=C1C(O)=C([C@H]2CC[C@H](c3ccc(Cl)cc3)CC2)C(=O)c2ccccc21 [ATOVAQUONE] as the compound, how does the IC50 [3] read?
A: 2600 nM

Q: And the IC50 [13]?
A: 2.38 nM

Q: And the Ratio IC50 [14]?
A: 6
